Source: patent US9969742B2, “Imidazotriazinone compounds” (Ironwood Pharmaceuticals, Inc., priority 2012, dated 2018)

molecular target: T1, PDE9A2 (Homo sapiens, UniProt O76083); experiment: Phosphodiesterase enzyme screening assay, PDE9A2; assay type: biochemical; conditions: 4.0 μM cGMP substrate, 1 hour at R.T.; read-out: Band (PDE9A2 IC50)
T1 construct: purchased Reaction Biology Corporation, Malvern, Pa
Description: Compounds of the invention were screened against PDE1A, PDE1B, PDE2A, PDE3A, PDE3B, PDE4A1A, PDE4B1, PDE4D3, PDE5A1, PDE6C, PDE7A, PDE8A1, PDE9A2, PDE10A2 AND PDE11A isoforms of the phosphodiesterase enzyme to determine activity and overall selectivity through comparative analysis. […] Where 8-methoxy-IBMX and Zaprinast were used as reference inhibitors.
The phosphodiesterase enzyme isoforms were obtained from a commercial retailer (Reaction Biology Corporation, Malvern, Pa.) for use in the instant screening assay.
The analysis was completed using the Caliper LabChip 3000 and a 12-sipper LabChip. LabChip assays are separations-based, meaning that the product and substrate are electrophoretically separated, thereby minimizing interferences and yielding the highest data quality available on any screening platform. […] High Z′ values, few false positives, few false negatives and analytical quality reproducibility are the reasons cited for the increasing reliance on the LabChip assays.
The off-chip incubation mobility-shift phosphodiesterase assay uses a microfluidic chip to measure the conversion of a fluorescent cyclic AMP substrate to a 5′-AMP product, or a cyclic GMP substrate to a 5′-GMP product. The reaction mixture, from a microtiter plate well, is introduced through a capillary sipper onto the chip, where the fluorescent substrate and product are separated by electrophoresis and detected via laser-induced fluorescence. […] The precision of microfluidics allows researchers to detect subtle interactions between drug candidates and therapeutic targets.
Reactions were carried out in 100 mM HEPES (pH 7.5), 5 mM MgCl2, 1 mM DTT, 0.003% Brij, 4.0 μM cGMP substrate. The reaction was started by addition of cGMP or cAMP and incubated for 1 hour at R.T. The reaction was terminated by the addition of stop buffer containing 100 mM HEPES (pH 7.5), 15 mM EDTA, 0.015% Brij-35, 5% DMSO. Cyclic AMP/GMP substrate and 5′-AMP/5′-GMP product were separated by charge using electrophoretic mobility shift. Product formed was compared to control wells to determine inhibition or enhancement of enzyme activity.
Data points were averages of quadruplicate wells and error bars represented the SEM for each point.

T1 sequence (O76083 1-533 isoform O76083-2): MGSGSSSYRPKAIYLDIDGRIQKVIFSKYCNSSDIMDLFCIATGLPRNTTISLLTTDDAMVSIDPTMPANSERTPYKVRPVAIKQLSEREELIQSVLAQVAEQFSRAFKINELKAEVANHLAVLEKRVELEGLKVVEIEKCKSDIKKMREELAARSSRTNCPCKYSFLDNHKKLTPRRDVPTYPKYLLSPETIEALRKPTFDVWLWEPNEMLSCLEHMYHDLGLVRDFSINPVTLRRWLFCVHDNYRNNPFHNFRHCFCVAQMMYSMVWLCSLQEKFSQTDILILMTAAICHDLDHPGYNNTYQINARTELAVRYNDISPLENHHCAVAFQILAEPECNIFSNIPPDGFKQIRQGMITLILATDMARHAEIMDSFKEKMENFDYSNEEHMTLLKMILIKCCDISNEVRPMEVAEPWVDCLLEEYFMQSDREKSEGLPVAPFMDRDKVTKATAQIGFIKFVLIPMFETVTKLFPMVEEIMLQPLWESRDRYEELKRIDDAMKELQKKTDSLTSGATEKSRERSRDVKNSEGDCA

Structure (SMILES)	IC50 [nM]
CC1CN(Cc2ccc(F)cc2)CC1c1nn2c(-c3ccccc3C(F)(F)F)ncc2c(=O)[nH]1 (single isomer, unassigned; (+))	< 1000
CC1CN(Cc2ccccc2)CC1c1nn2c(-c3ccccc3C(F)(F)F)ncc2c(=O)[nH]1 (single isomer, unassigned; (+))	< 1000
CC1CN(Cc2ncccn2)CC1c1nn2c(-c3ccccc3C(F)(F)F)ncc2c(=O)[nH]1 (single isomer, unassigned; (+))	< 1000
Cc1cnccc1-c1ncc2c(=O)[nH]c(C3CN(Cc4ccc(F)cc4)CC3C)nn12 (single isomer, unassigned; (+)) [(+)-2-((3,4-trans)-1-(4-fluorobenzyl)-4-methylpyrrolidin-3-yl)-7-(3-methylpyridin-4-yl) imidazo [5,1-f] [1,2,4] triazin-4 (3H)-one]	< 1000
CC1CN(Cc2nc3ccccn3n2)CC1c1nn2c(-c3ccccc3C(F)(F)F)ncc2c(=O)[nH]1 (single isomer, unassigned; (+)) [(+)-2-((3,4-trans)-1-([1,2,4]triazolo[1,5-a]pyridin-2-ylmethyl)-4-methylpyrrolidin-3-yl)-7-(2-(trifluoromethyl)phenyl)imidazo[5,1-f][1,2,4]triazin-4(3H)-one]	< 1000
CC1CN(Cc2nc3ccccn3n2)CC1c1nn2c(-c3ccccc3F)ncc2c(=O)[nH]1 (single isomer, unassigned; (+)) [(+)-2-((3,4-trans)-1-([1,2,4]triazolo[1,5-a]pyridin-2-ylmethyl)-4-methylpyrrolidin-3-yl)-7-(2-fluorophenyl)imidazo[5,1-f][1,2,4]triazin-4(3H)-one]	< 1000
Cc1cnccc1-c1ncc2c(=O)[nH]c(C3CN(Cc4nc5ccccn5n4)CC3C)nn12 (single isomer, unassigned; (+)) [(+)-2-((3,4-trans)-1-([1,2,4]triazolo[1,5-a]pyridin-2-ylmethyl)-4-methylpyrrolidin-3-yl)-7-(3-methylpyridin-4-yl)imidazo[5,1-f][1,2,4]triazin-4(3H)-one]	< 1000

same assay, conditions: Table 1; 10 concentrations; 4.0 μM cGMP substrate; 1 hour at R.T.; read-out: Band (PDE9A2 IC50)

Structure (SMILES)	IC50 [nM]
Cc1cnc(CN2C[C@@H](C)[C@H](c3nn4c(C5CCOCC5)ncc4c(=O)[nH]3)C2)cn1 (relative stereo) [(+)-2-((3,4-trans)-4-methyl-1-((5-methylpyrazin-2-yl)methyl)pyrrolidin-3-yl)-7-(tetrahydro-2H-pyran-4-yl)imidazo[5,1-f][1,2,4]triazin-4(3H)-one]	< 1000
Cc1ccc(Cl)cc1-c1ncc2c(=O)[nH]c([C@@H]3CNC[C@H]3C)nn12 (relative stereo) [(−)-7-(5-chloro-2-methylphenyl)-2-((3,4-trans)-4-methylpyrrolidin-3-yl)imidazo[5,1-f][1,2,4]triazin-4(3H)-one]	1000 to 10000
CC1CN(Cc2ccccc2)CC1c1nn2c(C3CCN(C)CC3)ncc2c(=O)[nH]1 (single isomer, unassigned) [2-((3,4-trans)-1-benzyl-4-methylpyrrolidin-3-yl)-7-(1-methylpiperidin-4-yl)imidazo[5,1-f][1,2,4]triazin-4(3H)-one]	1000 to 10000
CC1CN(C(C)c2ccccc2)CC1c1nn2c(C3CCOCC3)ncc2c(=O)[nH]1 (single isomer, unassigned; (+)) [listing 1 of 2 here]	1000 to 10000
CC1CN(C(C)c2ccccc2)CC1c1nn2c(C3CCOCC3)ncc2c(=O)[nH]1 (single isomer, unassigned; (+)) [listing 2 of 2 here]	< 1000
CC1CN(C(=O)c2ccc(F)cc2)CC1c1nn2c(C3CCOCC3)ncc2c(=O)[nH]1 (single isomer, unassigned; (+)) [(+)-2-((3,4-trans)-1-(4-fluorobenzoyl)-4-methylpyrrolidin-3-yl)-7-(tetrahydro-2H-pyran-4-yl)imidazo[5,1-f][1,2,4]triazin-4(3H)-one]	1000 to 10000
CC1CN(S(=O)(=O)c2ccccc2F)CC1c1nn2c(C3CCOCC3)ncc2c(=O)[nH]1 (single isomer, unassigned; (+)) [(+)-2-((3,4-trans)-1-((2-fluorophenyl)sulfonyl)-4-methylpyrrolidin-3-yl)-7-(tetrahydro-2H-pyran-4-yl)imidazo[5,1-f][1,2,4]triazin-4(3H)-one]	< 1000
CC1CN(S(=O)(=O)c2cccc(F)c2)CC1c1nn2c(C3CCOCC3)ncc2c(=O)[nH]1 (single isomer, unassigned; (+)) [(+)-2-((3,4-trans)-1-((3-fluorophenyl)sulfonyl)-4-methylpyrrolidin-3-yl)-7-(tetrahydro-2H-pyran-4-yl)imidazo[5,1-f][1,2,4]triazin-4(3H)-one]	< 1000
CC1CN(S(=O)(=O)c2ccc(F)cc2)CC1c1nn2c(C3CCOCC3)ncc2c(=O)[nH]1 (single isomer, unassigned; (+)) [(+)-2-((3,4-trans)-1-((4-fluorophenyl)sulfonyl)-4-methylpyrrolidin-3-yl)-7-(tetrahydro-2H-pyran-4-yl)imidazo[5,1-f][1,2,4]triazin-4(3H)-one]	< 1000

same assay, conditions: Table 2; 10 concentrations; 4.0 μM cGMP substrate; 1 hour at R.T.; read-out: Band (PDE9A2 IC50)

Structure (SMILES)	IC50 [nM]
CC1CN(Cc2nc(C(F)(F)F)cc(C(F)(F)F)n2)CC1c1nn2c(C3CCOCC3)ncc2c(=O)[nH]1 (single isomer, unassigned; (+)) [(+)-2-((3,4-trans)-1-((4,6-bis(trifluoromethyl)pyrimidin-2-yl)methyl)-4-methylpyrrolidin-3-yl)-7-(tetrahydro-2H-pyran-4-yl)imidazo[5,1-f][1,2,4]triazin-4(3H)-one]	< 1000
CC1CN(Cc2ncc(F)c(N3CCOCC3)n2)CC1c1nn2c(C3CCOCC3)ncc2c(=O)[nH]1 (single isomer, unassigned; (+)) [(+)-2-((3,4-trans)-1-((5-fluoro-4-morpholinopyrimidin-2-yl)methyl)-4-methylpyrrolidin-3-yl)-7-(tetrahydro-2H-pyran-4-yl)imidazo[5,1-f][1,2,4]triazin-4(3H)-one]	< 1000

same assay, conditions: read-out: Band (PDE9A2 IC50)

Structure (SMILES)	IC50 [nM]
CC1CN(CC2CCNCC2)CC1c1nn2c(C3CCOCC3)ncc2c(=O)[nH]1 (single isomer, unassigned; (+))	< 1000
CC1CN(Cc2ccc(Cl)cc2)CC1c1nn2c(-c3cccc(F)c3)ncc2c(=O)[nH]1 (single isomer, unassigned; (+)) [(+)-2-((3,4-trans)-1-(4-chlorobenzyl)-4-methylpyrrolidin-3-yl)-7-(3-fluorophenyl)imidazo[5,1-f][1,2,4]triazin-4(3H)-one]	1000 to 10000
Cc1ccncc1-c1ncc2c(=O)[nH]c(C3CN(Cc4ccc(F)cc4)CC3C)nn12 (single isomer, unassigned; (+)) [(+)-2-((3,4-trans)-1-(4-fluorobenzyl)-4-methylpyrrolidin-3-yl)-7-(4-methylpyridin-3-yl)imidazo[5,1-f][1,2,4]triazin-4(3H)-one]	< 1000
CC1CN(Cc2nc3ccccc3[nH]2)CC1c1nn2c(-c3ccc(F)cc3)ncc2c(=O)[nH]1 (single isomer, unassigned; (+)) [(+)-2-((3,4-trans)-1-((1H-benzo[d]imidazol-2-yl)methyl)-4-methylpyrrolidin-3-yl)-7-(4-fluorophenyl)imidazo[5,1-f][1,2,4]triazin-4(3H)-one]	< 1000
CC1CN(Cc2nc3ccccn3n2)CC1c1nn2c(-c3ccccc3)ncc2c(=O)[nH]1 (single isomer, unassigned; (+)) [(+)-2-((3,4-trans)-1-([1,2,4]triazolo[1,5-a]pyridin-2-ylmethyl)-4-methylpyrrolidin-3-yl)-7-phenylimidazo[5,1-f][1,2,4]triazin-4(3H)-one]	< 1000
